Assay results: patent US9796719B2, “Compounds and pharmaceutical compositions thereof for the treatment of inflammatory disorders” (GALAPAGOS NV, priority 2013, dated 2017)

Tests used:
hENPP2 [1] = biological target: T1, hENPP2 (UniProtKB/SwissProt Sequence ref Q13822) (Homo sapiens (Human), UniProt Q13822); experiment: LPC hENPP2 assay (choline release, LPC as substrate); format: biochemical
In short: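 Detection is coupled: choline oxidase produces peroxide, which HRP uses to form quinoneimine dye from TOOS and 4-aminoantipyrine, read at 555 nm. The reaction is stopped with 20 mM EGTA in the developer mix, then incubated 30 min at room temperature; inhibition lowers signal.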

hENPP2 [2] = biological target: T1, hENPP2; experiment: FS3 hENPP2 assay (fluorogenic substrate FS-3); format: biochemical; settings: hENPP2, FS-3 as substrate
Method: Compound IC50 values are determined in a fluorescent hENPP2 (UniProtKB/SwissProt Sequence ref Q13822) biochemical assay using the fluorogenic autotaxin substrate FS-3 as substrate. FS-3 is a doubly labeled analog of LPC wherein the fluorophore is quenched through intramolecular energy transfer. Without hENPP2, the emission of the probe is quenched. If the substrate is hydrolyzed by hENPP2, the emission of the probe is not quenched anymore resulting in a fluorescence increase. Inhibition of hENPP2 by compounds will result in a decrease of the signal.
10 μL of a dilution series of compound, starting from 20 μM highest concentration, ⅕ dilution, is added to the wells. hENPP2 is used at a final concentration of 0.4 μg/mL or 0.64 μg/mL (it will be appreciated by the skilled person that the potency read out is independent of the enzyme concentration). The enzyme is diluted in 50 mM Tris-HCl pH 8.0, 250 mM NaCl, 5 mM KCl, 1 mM MgCl2, 1 mM CaCl2, 0.1% fatty acid free BSA in a total volume of 20 μL. Enzyme mixture is added to compounds and the resulting mixture is incubated for 30 min at room temperature under shaking. The reaction is started by the addition of 20 μL of 0.75 μM FS-3 diluted in the same buffer as described above and the mixture is incubated at 30° C. for 30 min. Fluorescence is read on the Envision (Excitation 485 nm, emission 520 nm).

Row | Compound | IC50 (hENPP2 [1]) [nM] | IC50 (hENPP2 [2]) [nM]
1 | CCc1nc2ccc(N3CCC(N4CCCCC4)C3)nn2c1N(C)c1nc(-c2ccc(F)cc2)cs1 (stereo not drawn) [Cpd 151, N-(2-ethyl-6-(3-(piperidin-1-yl)pyrrolidin-1-yl)imidazo[1,2-b]pyridazin-3-yl)-4-(4-fluorophenyl)-N-methylthiazol-2-amine] | > 1000 | 0.01 to 25
2 | CN(c1nc(-c2ccc(F)cc2)cs1)c1c(CO)nc2ccc(C3=CCN(S(C)(=O)=O)CC3)nn12 [Compound 195, (3-((4-(4-fluorophenyl)thiazol-2-yl)(methyl)amino)-6-(1-(methylsulfonyl)-1,2,3,6-tetrahydropyridin-4-yl)imidazo[1,2-b]pyridazin-2-yl)methanol] | > 1000 | 0.01 to 25
3 | CCc1nc2ccc(N3CCN(S(C)(=O)=O)C(CCO)C3)nn2c1N(C)c1nc(-c2ccc(F)cc2)cs1 (stereo not drawn) [Cpd 72, 2-(4-(2-ethyl-3-((4-(4-fluorophenyl)thiazol-2-yl)(methyl)amino)imidazo[1,2-b]pyridazin-6-yl)-1-(methylsulfonyl)piperazin-2-yl) ethanol] | 500 to 1000 | 0.01 to 25
4 | CN(c1nc(-c2ccc(F)cc2)cs1)c1c(CCC(N)=O)nc2ccc(C3CCN(S(C)(=O)=O)CC3)nn12 [Compound 197, 3-(3-((4-(4-fluorophenyl)thiazol-2-yl)(methyl)amino)-6-(1-(methylsulfonyl)piperidin-4-yl)imidazo[1,2-b]pyridazin-2-yl)propanamide] | 500 to 1000 | 0.01 to 25
5 | CCc1nc2ccc(N3CCN(S(=O)(=O)CC)CC3)nn2c1N(C)c1nc(-c2ccc(F)cc2)cs1 [Cpd 71, N-(2-ethyl-6-(4-(ethylsulfonyl)piperazin-1-yl)imidazo[1,2-b]pyridazin-3-yl)-4-(4-fluorophenyl)-N-methylthiazol-2-amine] | > 1000 | 0.01 to 25
6 | CCc1nc2ccc(N3CCN(CC(=O)N4CCOCC4)[C@H](CO)C3)nn2c1N(C)c1nc(-c2ccc(F)cc2)cs1 [Cpd 65, (S)-2-(4-(2-ethyl-3-((4-(4-fluorophenyl)thiazol-2-yl)(methyl)amino)imidazo[1,2-b]pyridazin-6-yl)-2-(hydroxymethyl)piperazin-1-yl)-1-morpholinoethanone] | 100 to 500 | 0.01 to 25
7 | CCc1nc2ccc(N3CC4CN(C(=O)OC(C)(C)C)CC4C3)nn2c1N(C)c1nc(-c2ccc(F)cc2)cs1 (stereo not drawn) [Cpd 122, tert-butyl 5-(2-ethyl-3-((4-(4-fluorophenyl)thiazol-2-yl)(methyl)amino)imidazo[1,2-b]pyridazin-6-yl)hexahydro-pyrrolo[3,4-c] pyrrole-2(1H)-carboxylate] | > 1000 | 0.01 to 25
8 | CCc1nc2ccc(N3CCN(CC(=O)N4CCCC4)[C@H](CO)C3)nn2c1N(C)c1nc(-c2ccc(F)cc2)cs1 [Compound 64, (S)-2-(4-(2-ethyl-3-((4-(4-fluorophenyl)thiazol-2-yl)(methyl)amino)imidazo[1,2-b]pyridazin-6-yl)-2-(hydroxymethyl)piperazin-1-yl)-1-(pyrrolidin-1-yl)ethanone] | 100 to 500 | 0.01 to 25
9 | CCc1nc2ccc(N3CCN(CC(=O)N4CC(O)C4)CC3)nn2c1N(C)c1nc(-c2ccc(F)cc2)c(C#N)s1 [Cpd 27, 2-((2-ethyl-6-(4-(2-(3-hydroxyazetidin-1-yl)-2-oxoethyl)piperazin-1-yl)imidazo[1,2-b]pyridazin-3-yl)(methyl)amino)-4-(4-fluorophenyl) thiazole-5-carbonitrile] | 0.01 to 100 | 0.01 to 25
10 | CCc1nc2ccc(N3CCN(CC(=O)N(C)C)CC3)nn2c1N(C)c1nc(-c2ccc(F)cc2)c(C(=O)C(F)(F)F)s1 [Cpd 45, 2-(4-(2-ethyl-3-((4-(4-fluorophenyl)-5-(2,2,2-trifluoroacetoyl)thiazol-2-yl)(methyl)amino)imidazo[1,2-b]pyridazin-6-yl)piperazin-1-yl)-N,N-dimethylacetamide] | 0.01 to 100 | 0.01 to 25
11 | CCc1nc2ccc(N3CCN(CCC(N)=O)CC3)nn2c1N(C)c1nc(-c2ccc(F)cc2)cs1 [Compound 52, 3-(4-(2-ethyl-3-((4-(4-fluorophenyl)thiazol-2-yl)(methyl)amino)imidazo[1,2-b]pyridazin-6-yl)piperazin-1-yl)propanamide] | 500 to 1000 | 0.01 to 25
12 | CCc1nc2ccc(N3CCCC(CNC(=O)OC(C)(C)C)C3)nn2c1N(C)c1nc(-c2ccc(F)cc2)cs1 (stereo not drawn) [Cpd 100, [1-(2-Ethyl-3-{[4-(4-fluoro-phenyl)-thiazol-2-yl]-methyl-amino}-imidazo[1,2-b]pyridazin-6-yl)-piperidin-3-ylmethyl]-carbamic acid tert-butyl ester] | > 1000 | 0.01 to 25
13 | CCc1nc2ccc(N3CCC(C(=O)OC)C3)nn2c1N(C)c1nc(-c2ccc(F)cc2)cs1 (stereo not drawn) [Cpd 139, 1-(2-Ethyl-3-{[4-(4-fluoro-phenyl)-thiazol-2-yl]-methyl-amino}-imidazo[1,2-b]pyridazin-6-yl)-pyrrolidine-3-carboxylic acid methyl ester] | > 1000 | –
14 | CCc1nc2ccc(N3CCN(S(C)(=O)=O)[C@H](CO)C3)nn2c1N(C)c1nc(-c2ccc(F)cc2)c(C#N)s1 [Cpd 161, (S)-2-((2-ethyl-6-(3-(hydroxymethyl)-4-(methylsulfonyl)piperazin-1-yl)imidazo[1,2-b]pyridazin-3-yl)(methyl)amino)-4-(4-fluorophenyl) thiazole-5-carbonitrile] | 100 to 500 | –
15 | CCc1nc2ccc(N3CCN(CCCO)CC3)nn2c1N(C)c1nc(-c2ccc(F)cc2)c(CO)s1 [Cpd 50, 3-(4-(2-ethyl-3-((4-(4-fluorophenyl)-5-(hydroxymethyl)thiazol-2-yl)(methyl)amino)imidazo[1,2-b]pyridazin-6-yl)piperazin-1-yl)propan-1-ol] | > 1000 | –

Next, values leading:

Row | IC50 (hENPP2 [1]) [nM] | IC50 (hENPP2 [2]) [nM] | Compound
16 | > 1000 | 25 to 50 | CCc1nc2ccc(N3CCCC(O)C3)nn2c1N(C)c1nc(-c2ccc(F)cc2)cs1 (stereo not drawn) [Cpd 91, 1-(2-ethyl-3-((4-(4-fluorophenyl)thiazol-2-yl)(methyl)amino)imidazo[1,2-b]pyridazin-6-yl)piperidin-3-ol]
17 | 500 to 1000 | 0.01 to 25 | CCc1nc2cnc(N3CCN(CC(=O)NC)CC3)cn2c1N(C)c1nc(-c2ccc(F)cc2)c(C#N)s1 [Cpd 9, 2-(4-(3-((5-cyano-4-(4-fluorophenyl)thiazol-2-yl)(methyl)amino)-2-ethylimidazo[1,2-a]pyrazin-6-yl)piperazin-1-yl)-N-methylacetamide]
18 | 100 to 500 | 0.01 to 25 | CCc1nc2ccc(N3CCN(CC(=O)N4CCCC4CO)CC3)nn2c1N(C)c1nc(-c2ccc(F)cc2)cs1 (stereo not drawn) [Cpd 29]
19 | > 1000 | 0.01 to 25 | CCc1nc2ccc(N3CCN(CC(=O)NC(C)C)CC3)nn2c1N(C)c1nc(-c2ccc(F)cc2)cs1 [Cpd 54, 2-(4-(2-ethyl-3-((4-(4-fluorophenyl)thiazol-2-yl)(methyl)amino)imidazo[1,2-b]pyridazin-6-yl)piperazin-1-yl)-N-isopropylacetamide]
20 | > 1000 | 0.01 to 25 | CCOC(=O)C1CCN(c2ccc3nc(CC)c(N(C)c4nc(-c5ccc(F)cc5)cs4)n3n2)CC1 [Compound 95, ethyl 1-(2-ethyl-3-((4-(4-fluorophenyl)thiazol-2-yl)(methyl)amino)imidazo[1,2-b]pyridazin-6-yl)piperidine-4-carboxylate]
21 | 500 to 1000 | 0.01 to 25 | CCc1nc2ccc(N3CCC(N4CCN(CCCO)CC4)C3)nn2c1N(C)c1nc(-c2ccc(F)cc2)cs1 (stereo not drawn) [Cpd 145, 3-(4-(1-(2-ethyl-3-((4-(4-fluorophenyl)thiazol-2-yl)(methyl)amino)imidazo[1,2-b]pyridazin-6-yl)pyrrolidin-3-yl)piperazin-1-yl)propan-1-ol]
22 | > 1000 | 0.01 to 25 | CCc1nc2ccc(N3CCN(C(=O)C4CCCO4)CC3)nn2c1N(C)c1nc(-c2ccc(F)cc2)cs1 (stereo not drawn) [Cpd 47, (4-(2-ethyl-3-((4-(4-fluorophenyl)thiazol-2-yl)(methyl)amino)imidazo[1,2-b]pyridazin-6-yl)piperazin-l-yl)(tetrahydrofuran-2-yl)methanone]
23 | 100 to 500 | 0.01 to 25 | CCc1nc2ccc(N3CCC(O)C3)nn2c1N(C)c1nc(-c2ccc(F)cc2)c(C#N)s1 (stereo not drawn) [Cpd 171, 2-((2-ethyl-6-(3-hydroxypyrrolidin-1-yl)imidazo[1,2-b]pyridazin-3-yl)(methyl)amino)-4-(4-fluorophenyl) thiazole-5-carbonitrile]
24 | – | 0.01 to 25 | CCc1nc2ccc(C3=CCN(C(=O)OC(C)(C)C)CC3)nn2c1N(C)c1nc(-c2ccc(F)cc2)cs1 [Compound 193, tert-butyl 4-(2-ethyl-3-((4-(4-fluorophenyl)thiazol-2-yl)(methyl)amino)imidazo[1,2-b]pyridazin-6-yl)-5,6-dihydropyridine-1(2H)-carboxylate]
25 | 100 to 500 | – | CCc1nc2ccc(N3CCC4(CCNC4)C3)nn2c1N(C)c1nc(-c2ccc(F)cc2)c(C#N)s1 (stereo not drawn) [Cpd 166, 2-((2-ethyl-6-(2,7-diazaspiro[4.4]nonan-2-yl)imidazo[1,2-b]pyridazin-3-yl)(methyl)amino)-4-(4-fluorophenyl) thiazole-5-carbonitrile]
